# Data as given in ChEMBL document CHEMBL6182942, “Discovery of a Selective, Novel TGF-βR1 Inhibitor GFH018 for the Treatment of Solid Tumors” (J Med Chem, 2025).
# Active and inactive are the calls of the source. No cut-off for these calls is given here.
# What was measured:
# Cytochrome P450 1A2 = Cytochrome P450 1A2 (Homo sapiens, UniProt P05177); test: Inhibition of CYP1A2 in human liver microsomes using phenacetin as substrate preincubated for 10 mins followed by NADPH regeneration system addition and measured after 10 mins by LC-MS/MS analysis; type: ADME, Microsome
# 4T1-Luc = test: Antimetastatic activity against mouse 4T1-Luc cells implanted in BALB/c mouse assessed as reduction in metastatic rate in liver at 100 mg/kg, po administered daily for 32 days and measured on day 30 to 35 by IVIS fluorescence analysis; type: functional, organism-based; settings: time 35.0 day
# [1] = Drug metabolism in rat liver microsomes; type: ADME, Microsome
# [2] = Cmax in Sprague-Dawley rat at 30 mg/kg, po administered via gavage by LC-MS/MS analysis; type: ADME, organism-based; settings: in vivo
# [3] = Drug metabolism in monkey hepatocytes; type: ADME, cell-based, Macaca mulatta, Hepatocyte; settings: rhesus monkey
# [4] = Metabolic stability in human liver microsomes assessed as parent compound remaining at 1 uM preincubated for 5 mins followed by NADPH addition by LC-MS/MS analysis; type: ADME, Microsome; settings: read-out: Stability
# Cytochrome P450 2B6 = Cytochrome P450 2B6 (Homo sapiens, UniProt P20813); test: Inhibition of CYP2B6 in human liver microsomes using bupropion as substrate preincubated for 10 mins followed by NADPH regeneration system addition and measured after 10 mins by LC-MS/MS analysis; type: ADME, Microsome
# CD14-positive cell [5] = test: Immunostimulatory activity in human PBMC derived M-CSF stimulated CD14-positive cells assessed as effect on M2 macrophage polarization at 0.01 to 10 uM supplemented with fresh medium containing compound on day 1, 3 and 5 followed by M-CSF/IL-4/IL-13 stimulation; type: functional, cell-based; settings: dose 0.01-10 µM, time 5.0 day
# Cytochrome P450 2C8 = Cytochrome P450 2C8 (Homo sapiens, UniProt P10632); test: Inhibition of CYP2C8 in human liver microsomes using amodiaquine as substrate preincubated for 10 mins followed by NADPH regeneration system addition and measured after 10 mins by LC-MS/MS analysis; type: ADME, Microsome
# [6] = molecular target: Mitogen-activated protein kinase 14 (Homo sapiens, UniProt Q16539); test: Inhibition of p38alpha (unknown origin) measured after 40 mins in presence of [gamma-33P]ATP by microbeta liquid scintillation counting analysis; type: toxicity
# [7] = Intrinsic clearance in mouse hepatocytes at 1 uM measured after 90 mins by LC-MS/MS analysis; type: ADME, cell-based, Hepatocyte; settings: read-out: CLH
# [8] = Protein binding in cynomolgus monkey plasma at 0.2 to 10 uM measured after 4 hrs by equilibrium dialysis based LC-MS/MS analysis; type: ADME, cell-free, Macaca fascicularis; settings: dose 0.2-10 µM, read-out: PPB (converted)
# [9] = molecular target: Receptor-interacting serine/threonine-protein kinase 2 (Homo sapiens) (UniProt O43353); test: Inhibition of RIPK2 (unknown origin) assessed as residual activity at 1 uM relative to control
# [10] = molecular target: Voltage-gated inwardly rectifying potassium channel KCNH2 (Homo sapiens, UniProt Q12809); test: Inhibition of human ERG stably expressed in HEK293 cells measured at holding potential of -80 mV by manual patch clamp assay; type: toxicity, cell-based
# [11] = AUC (0 to last) in CD-1 mouse at 75 mg/kg, po via gavage by LC-MS/MS analysis; type: ADME, organism-based; settings: in vivo
# [12] = Half life in Sprague-Dawley rat at 1 mg/kg, iv by LC-MS/MS analysis; type: ADME, organism-based; settings: in vivo
# [13] = Intrinsic clearance in human hepatocytes at 1 uM measured after 90 mins by LC-MS/MS analysis; type: ADME, cell-based, Hepatocyte; settings: read-out: CLH
# [14] = Volume of distribution at steady state in Sprague-Dawley rat at 1 mg/kg, iv by LC-MS/MS analysis; type: ADME, organism-based; settings: in vivo, read-out: Vdss
# [15] = Oral bioavailability in CD-1 mouse at 75 mg/kg via gavage by LC-MS/MS analysis; type: ADME, organism-based; settings: in vivo
# [16] = Half life in Beagle dog at 5 mg/kg, po by LC-MS/MS analysis; type: ADME, organism-based, Canis lupus familiaris; settings: in vivo
# [17] = Clearance in Sprague-Dawley rat at 1 mg/kg, iv by LC-MS/MS analysis; type: ADME, organism-based; settings: in vivo
# [18] = Half life in CD-1 mouse at 5 mg/kg, po via gavage by LC-MS/MS analysis; type: ADME, organism-based; settings: in vivo
# CD14-positive cell [19] = test: (§1) Immunostimulatory activity in human PBMC derived M-CSF stimulated CD14-positive cells assessed as reduction in IL-10 level at 0.1 to 10 uM supplemented with fresh medium containing compound on day 1, 3 and 5 followed by M-CSF/IL-4/IL-13 stimulation for 2 days with subsequent LPS induction and measured after 16 hrs; type: functional, cell-based; settings: dose 0.1-10 µM, time 7.0 day
# CD14-positive cell [20] = test: as §1, with “increase” for “reduction”, “TNFalpha” for “IL-10”; type: functional, cell-based; settings: dose 0.1-10 µM, time 7.0 day
# [21] = Drug metabolism in mouse hepatocytes; type: ADME, cell-based, Hepatocyte
# [22] = Volume of distribution at steady state in CD-1 mouse at 1 mg/kg, iv by LC-MS/MS analysis; type: ADME, organism-based; settings: in vivo, read-out: Vdss
# CD14-positive cell [23] = test: as §1, with “increase” for “reduction”, “IL-6” for “IL-10”; type: functional, cell-based; settings: dose 0.1-10 µM, time 7.0 day
# [24] = AUC (0 to last) in Sprague-Dawley rat at 1 mg/kg, iv by LC-MS/MS analysis; type: ADME, organism-based; settings: in vivo
# [25] = Protein binding in Beagle dog plasma at 0.2 to 10 uM measured after 4 hrs by equilibrium dialysis based LC-MS/MS analysis; type: ADME, cell-free, Canis lupus familiaris; settings: dose 0.2-10 µM, read-out: PPB (converted)
# [26] = Protein binding in human plasma at 0.2 to 10 uM measured after 4 hrs by equilibrium dialysis based LC-MS/MS analysis; type: ADME, cell-free; settings: dose 0.2-10 µM, read-out: PPB (converted)
# [27] = AUC (0 to last) in CD-1 mouse at 5 mg/kg, po via gavage by LC-MS/MS analysis; type: ADME, organism-based; settings: in vivo
# HUVEC = test: Antiangiogenesis activity in HUVEC assessed as inhibition of vascular structure formation measured after 6 hrs by matrigel based inverted fluorescence microscopy; type: functional, cell-based; settings: Homo sapiens, dose 0.1-10 µM
# [28] = Half life in CD-1 mouse at 75 mg/kg, po via gavage by LC-MS/MS analysis; type: ADME, organism-based; settings: in vivo
# [29] = Toxicity in mouse H22 cell implanted BALB/c mouse assessed as change in body weight at 15 to 50 mg/kg, po administered twice daily for 11 days measured daily during compound dosing; type: organism-based; settings: in vivo, 264 h, dose 15-50 mg/kg, time 11 day
# Chain of Voltage-gated inwardly rectifying potassium channel KCNH2 (Q12809 whole entry): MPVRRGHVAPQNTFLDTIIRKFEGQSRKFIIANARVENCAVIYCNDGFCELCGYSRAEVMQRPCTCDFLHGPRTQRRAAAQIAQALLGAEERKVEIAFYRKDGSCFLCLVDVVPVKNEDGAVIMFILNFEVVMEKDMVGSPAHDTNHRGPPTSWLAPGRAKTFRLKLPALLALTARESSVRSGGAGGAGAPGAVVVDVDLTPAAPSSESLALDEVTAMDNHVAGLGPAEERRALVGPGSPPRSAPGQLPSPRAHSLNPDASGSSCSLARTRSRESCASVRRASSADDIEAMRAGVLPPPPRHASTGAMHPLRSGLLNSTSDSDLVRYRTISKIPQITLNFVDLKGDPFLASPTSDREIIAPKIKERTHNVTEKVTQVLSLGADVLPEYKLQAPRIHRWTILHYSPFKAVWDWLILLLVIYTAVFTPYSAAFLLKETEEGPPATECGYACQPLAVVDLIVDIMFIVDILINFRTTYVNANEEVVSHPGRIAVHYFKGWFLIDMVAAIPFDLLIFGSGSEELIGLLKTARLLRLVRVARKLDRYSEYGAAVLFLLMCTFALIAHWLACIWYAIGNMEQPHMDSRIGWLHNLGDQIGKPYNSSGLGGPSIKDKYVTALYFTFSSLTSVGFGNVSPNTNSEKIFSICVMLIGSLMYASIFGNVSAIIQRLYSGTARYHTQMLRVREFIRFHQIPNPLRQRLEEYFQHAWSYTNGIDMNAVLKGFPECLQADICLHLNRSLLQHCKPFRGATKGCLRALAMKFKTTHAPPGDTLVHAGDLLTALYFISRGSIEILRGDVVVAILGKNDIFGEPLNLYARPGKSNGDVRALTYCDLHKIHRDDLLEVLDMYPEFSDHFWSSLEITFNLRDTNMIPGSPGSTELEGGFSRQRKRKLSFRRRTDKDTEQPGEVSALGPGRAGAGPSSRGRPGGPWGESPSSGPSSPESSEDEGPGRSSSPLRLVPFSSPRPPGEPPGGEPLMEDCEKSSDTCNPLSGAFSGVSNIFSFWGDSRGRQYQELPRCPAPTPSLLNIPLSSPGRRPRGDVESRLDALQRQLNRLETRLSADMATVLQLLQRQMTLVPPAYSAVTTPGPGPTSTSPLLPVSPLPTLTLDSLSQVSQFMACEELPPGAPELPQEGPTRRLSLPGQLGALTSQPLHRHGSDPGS
# Chain of Receptor-interacting serine/threonine-protein kinase 2 (Homo sapiens) (O43353 whole entry): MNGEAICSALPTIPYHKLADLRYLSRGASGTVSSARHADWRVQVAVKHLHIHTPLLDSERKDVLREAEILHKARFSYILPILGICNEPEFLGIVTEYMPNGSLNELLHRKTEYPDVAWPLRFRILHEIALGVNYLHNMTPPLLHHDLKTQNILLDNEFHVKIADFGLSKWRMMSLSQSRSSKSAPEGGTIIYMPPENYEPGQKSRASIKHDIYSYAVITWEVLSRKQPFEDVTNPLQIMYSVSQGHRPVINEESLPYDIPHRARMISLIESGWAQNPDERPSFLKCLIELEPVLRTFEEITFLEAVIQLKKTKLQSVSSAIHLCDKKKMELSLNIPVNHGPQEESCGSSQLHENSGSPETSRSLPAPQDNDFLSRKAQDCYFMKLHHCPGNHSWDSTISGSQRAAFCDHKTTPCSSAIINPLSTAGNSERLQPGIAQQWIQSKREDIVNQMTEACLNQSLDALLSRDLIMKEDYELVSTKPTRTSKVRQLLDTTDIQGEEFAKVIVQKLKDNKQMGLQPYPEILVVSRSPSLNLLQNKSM
# Chain of Cytochrome P450 2C8 (P10632 whole entry): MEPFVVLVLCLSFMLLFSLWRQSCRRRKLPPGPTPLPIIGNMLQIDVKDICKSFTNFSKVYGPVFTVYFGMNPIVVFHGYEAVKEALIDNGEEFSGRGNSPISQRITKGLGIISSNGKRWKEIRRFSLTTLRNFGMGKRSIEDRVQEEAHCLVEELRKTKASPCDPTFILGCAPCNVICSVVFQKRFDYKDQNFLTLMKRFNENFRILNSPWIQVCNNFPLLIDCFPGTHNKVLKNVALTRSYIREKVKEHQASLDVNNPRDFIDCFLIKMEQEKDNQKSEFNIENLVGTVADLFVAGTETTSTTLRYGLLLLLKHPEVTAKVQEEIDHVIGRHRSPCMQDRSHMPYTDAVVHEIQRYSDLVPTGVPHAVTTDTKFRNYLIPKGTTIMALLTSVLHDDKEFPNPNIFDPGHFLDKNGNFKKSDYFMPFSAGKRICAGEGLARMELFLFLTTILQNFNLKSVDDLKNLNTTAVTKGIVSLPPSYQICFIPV
# Chain of Mitogen-activated protein kinase 14 (Q16539 whole entry): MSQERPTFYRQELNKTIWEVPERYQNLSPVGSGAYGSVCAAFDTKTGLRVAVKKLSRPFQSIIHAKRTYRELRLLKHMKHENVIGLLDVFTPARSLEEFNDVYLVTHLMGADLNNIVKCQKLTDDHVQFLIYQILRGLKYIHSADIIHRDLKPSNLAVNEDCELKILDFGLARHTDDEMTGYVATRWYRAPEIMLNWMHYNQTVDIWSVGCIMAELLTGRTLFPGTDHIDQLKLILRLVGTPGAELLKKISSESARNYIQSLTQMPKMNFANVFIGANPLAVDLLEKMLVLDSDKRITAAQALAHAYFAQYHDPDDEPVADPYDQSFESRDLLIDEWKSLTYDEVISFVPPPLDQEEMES
# Chain of Cytochrome P450 1A2 (P05177 whole entry): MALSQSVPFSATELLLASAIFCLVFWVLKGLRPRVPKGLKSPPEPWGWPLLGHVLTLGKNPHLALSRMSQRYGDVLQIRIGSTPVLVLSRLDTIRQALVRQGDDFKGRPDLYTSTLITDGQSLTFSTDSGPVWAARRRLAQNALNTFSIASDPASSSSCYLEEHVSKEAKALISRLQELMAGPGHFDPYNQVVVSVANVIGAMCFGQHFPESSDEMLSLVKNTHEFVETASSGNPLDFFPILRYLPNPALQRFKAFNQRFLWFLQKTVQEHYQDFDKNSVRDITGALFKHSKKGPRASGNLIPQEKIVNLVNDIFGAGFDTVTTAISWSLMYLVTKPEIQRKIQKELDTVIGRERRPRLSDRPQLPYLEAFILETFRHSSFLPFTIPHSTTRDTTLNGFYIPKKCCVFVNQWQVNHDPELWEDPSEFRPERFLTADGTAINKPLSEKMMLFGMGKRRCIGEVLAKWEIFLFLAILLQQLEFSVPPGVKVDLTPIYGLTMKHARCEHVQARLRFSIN
# Chain of Cytochrome P450 2B6 (P20813 whole entry): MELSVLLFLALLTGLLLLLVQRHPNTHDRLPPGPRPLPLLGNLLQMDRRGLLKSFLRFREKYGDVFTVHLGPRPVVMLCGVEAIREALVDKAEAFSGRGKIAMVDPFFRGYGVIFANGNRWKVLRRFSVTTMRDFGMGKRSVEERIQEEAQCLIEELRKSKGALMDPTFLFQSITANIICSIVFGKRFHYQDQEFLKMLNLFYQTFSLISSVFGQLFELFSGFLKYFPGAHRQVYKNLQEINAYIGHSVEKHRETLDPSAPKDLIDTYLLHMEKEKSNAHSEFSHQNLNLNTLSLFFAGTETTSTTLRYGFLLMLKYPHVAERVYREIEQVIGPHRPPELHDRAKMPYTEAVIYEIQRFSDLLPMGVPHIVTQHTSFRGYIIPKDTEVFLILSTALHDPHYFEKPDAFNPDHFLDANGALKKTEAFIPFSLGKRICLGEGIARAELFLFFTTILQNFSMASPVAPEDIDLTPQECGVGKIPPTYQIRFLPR
compound,measurement,setting,value
Cc1cccc(-c2nn3c(c2-c2ccc4ncnn4c2/C=C/C(N)=O)CCC3)n1,IC50,Cytochrome P450 1A2,> 100 µM
same,Activity,4T1-Luc,Active
same,Drug metabolism,[1],metabolite_detected
same,Cmax,[2],9553 nM/ml
same,Drug metabolism,[3],metabolite_detected
same,remaining at 1 µM,[4],87.5%
same,IC50,Cytochrome P450 2B6,> 100 µM
same,Activity,CD14-positive cell [5],inactive
same,IC50,Cytochrome P450 2C8,> 100 µM
same,IC50,[6],2650 nM
same,"CLint scaled at […], 1 µM",[7],298 mL/min/kg
same,"fraction unbound at 4 h, up to 10 µM",[8],0.522
same,Activity,[9],< 50%
same,IC50,[10],> 30 µM
same,AUClast,[11],18137 nM.hr/ml
same,half-life,[12],52.2 min
same,"CLint scaled at […], 1 µM",[13],< 6.9 mL/min/kg
same,Vd,[14],1.44 L/kg
same,bioavailability,[15],36.8%
same,half-life,[16],170 min
same,clearance,[17],33.3 mL/min/kg
same,half-life,[18],55 min
same,Activity,CD14-positive cell [19],Active
same,Activity,CD14-positive cell [20],Active
same,Drug metabolism,[21],metabolite_detected
same,Vd,[22],1.4 L/kg
same,Activity,CD14-positive cell [23],Active
same,AUClast,[24],1332 nM.hr/ml
same,"fraction unbound at 4 h, up to 10 µM",[25],0.476
same,"fraction unbound at 4 h, up to 10 µM",[26],0.556
same,AUClast,[27],285 nM.hr/ml
same,inhibition,HUVEC,Dose-dependent-effect
same,half-life,[28],51.4 min
same,Activity,[29],Non-toxic
